A short description of the data set: Stability testing of macrocyclic copper chelates: DTPA challenge analysed by reversed phase HPLC. Conditions: approximately 1 mM complex in 100 mM Tris-HCl buffer, pH 7.5, combined one to one with 55 mM DTPA, ambient temperature, 30 minutes. In kind it is physicochemical. The procedure:
Stability testing of macrocyclic copper chelates. (FIG. 1).
Example 13. Copper complexes 27, 39, and 44 were dissolved at approximately 1 mM concentration in 100 mM Tris-HCl buffer, pH 7.5. A solution of 55 mM diethylenetriaminepentaacetic acid (DTPA), pH 7.5 was prepared. Copper complexes were analyzed by reversed phase HPLC using an Agilent 1200 Series instrument equipped with a Zorbax Eclipse XDB-C18 4.6×150 mm 5 μm column. The method used an isocratic gradient of 0.1M triethylammonium bicarbonate, pH 7.5 (Solvent A) and 10-80% acetonitrile (Solvent B) as mobile phases. A solution of copper complex and DTPA solution combined in a ratio of one to one was prepared and mixed at ambient temperature for 30 minutes prior to analysis. Admixture of DTPA and copper complexes led to variable levels of dissociation of the copper complex, as quantified by the elution of the metal free ligand at shorter retention time.
Take “Copper complex of 16-(2-(4-(((S)-5-carboxy-5-(3-((S)-1,3-dicarboxypropyl)ureido)pentyl)carbamoyl)benzamido)ethyl)-1^6,11^6-dimercapto-2,10,12,20-tetraoxo-6- oxa-3,9,13,16,19-pentaaza-1,11(2,5)-dipyridin-1-iumacycloicosaphane 1^1,11^1-dioxide [Compound 27]”: the “stability of the copper complex in the presence of DTPA competitor (dissociation quantified by elution of the metal free ligand)” value is “both are more stable than compound 27”.
With “Copper(II) complex of 4-((2-(2-aminoethoxy)ethyl)carbamoyl)-1^6,10^6-dimercapto-2,9,11,24-tetraoxo-16,19-dioxa-3,8,12,23-tetraaza-1,10(2,5)-dipyridin-1- iumacyclotetracosaphane 1^1,10^1-dioxide, trifluoroacetate salt [Compound 44]” the entry was “more stable in the presence of DTPA competitor than complex 39”; with “Copper(II) complex of 6-(2-aminoethyl)-1^6,11^6-dimercapto-2,10,12,25-tetraoxo-17,20-dioxa-3,6,9,13,24-pentaaza-1,11(2,5)-dipyridin-1-iumacyclopentacosaphane 1^1,11^1-dioxide [Compound 39]”, “more stable than compound 27”.
